Experimental data: publication PMC10058245 (Science Advances, 2023)
Numbering of substitutions follows the chain as printed.

Key:
[1] = target: T1, VRAC (SWELL1/LRRC8A-containing volume-regulated anion channel) (Homo sapiens, UniProt Q8IWT6); assay: whole-cell patch clamp of hypotonicity-induced VRAC currents; assay type: cell-based
T1 sequence (Q8IWT6 1-810): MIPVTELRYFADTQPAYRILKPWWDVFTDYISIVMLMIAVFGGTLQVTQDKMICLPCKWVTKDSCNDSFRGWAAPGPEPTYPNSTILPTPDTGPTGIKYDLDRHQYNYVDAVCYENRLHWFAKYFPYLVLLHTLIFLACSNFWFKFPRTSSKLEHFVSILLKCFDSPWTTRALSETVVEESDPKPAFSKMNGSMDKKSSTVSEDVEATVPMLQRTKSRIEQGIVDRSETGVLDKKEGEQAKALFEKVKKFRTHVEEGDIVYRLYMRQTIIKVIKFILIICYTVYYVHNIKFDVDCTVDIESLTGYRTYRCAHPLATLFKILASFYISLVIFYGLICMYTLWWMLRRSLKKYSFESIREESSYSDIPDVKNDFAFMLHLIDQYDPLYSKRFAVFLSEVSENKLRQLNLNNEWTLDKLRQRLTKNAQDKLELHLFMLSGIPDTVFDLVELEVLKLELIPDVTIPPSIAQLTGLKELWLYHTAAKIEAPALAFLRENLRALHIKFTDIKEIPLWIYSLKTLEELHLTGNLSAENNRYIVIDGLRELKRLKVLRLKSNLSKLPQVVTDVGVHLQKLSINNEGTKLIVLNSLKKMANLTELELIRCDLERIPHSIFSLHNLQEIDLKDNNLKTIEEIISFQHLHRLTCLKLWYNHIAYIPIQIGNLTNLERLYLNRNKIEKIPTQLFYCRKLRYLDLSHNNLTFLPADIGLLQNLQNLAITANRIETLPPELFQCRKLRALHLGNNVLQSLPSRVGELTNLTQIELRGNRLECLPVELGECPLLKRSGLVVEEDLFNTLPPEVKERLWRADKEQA

[2] = target: T2, VRAC (Swell1/Lrrc8a-containing volume-regulated anion channel) (Mus musculus, UniProt Q80WG5); assay: whole-cell patch clamp of hypotonicity-induced VRAC currents in BV2 microglia; assay type: cell-based
T2 sequence (Q80WG5 1-810): T1 sequence (Q8IWT6 1-810) with P75S, G76S, I86V, I276A, A591V, I715V, T722A, N792S

Structure (SMILES)	IC50 [1] [µM]	IC50 [2] [µM]
O=c1oc2ccccc2c(O)c1Cc1c(O)c2ccccc2oc1=O [dicumarol]	3.8	4.1
COc1cc(C(=O)NS(=O)(=O)c2ccccc2C)ccc1Cc1cn(C)c2ccc(NC(=O)OC3CCCC3)cc12 [zafirlukast]	4.9	
